Patent US20250059175A1, “Mutant Pi3k-Alpha Inhibitors And Their Use As Pharmaceuticals” (Prelude Therapeutics Incorporated, priority 2023, published 2025)

Test system: phosphorylation of AKT on Ser473 (PI3K pathway) in T-47D (heterozygous PIK3CA H1047R) cell line
Test: PI3K pathway activation assay (pAKT Ser473 HTRF), T-47D cells
Assay type: cell-based
Conditions: Homo sapiens, T47D, 2 h, read-out: T47D pAKT IC50
Protocol: The inhibitory activity of the compounds of the disclosure was evaluated by measuring phosphorylation of AKT on Ser473 as a readout of the PI3K pathway using HTRF (CisBio catalog number: 64AKSPE). These studies were conducted in the T-47D (heterozygous PIK3CA H1047R) and SKBR3 (PIK3CA WT) cell lines. Cells were maintained in a 37° C. incubator at 5% CO2 in the following media: T-47D: RPMI 1640, ATCC© Modification (Gibco, A10491-01) supplemented with 10% v/v FBS (Gibco, 26140-079), 1% penicillin streptomycin (Gibco, 15140-122), and 7.4 ug/mL insulin (MilliporeSigma, I9278); SKBR3: McCoy's 5a (Modified) Medium (Gibco, 16600-082) supplemented with 10% v/v FBS (Gibco, 26140-079). Cells were seeded in 384-well plates at a density of 4,000 cells/well. Compounds dissolved in DMSO were added using a digital dispense (D300E, Tecan) 10-point serial dilution. After two hours of treatment, cells were lysed for thirty minutes and then incubated with detection reagents per HTRF kit material and manufacturer's instructions. Fluorescence signal was measured with a multimode plate reader (Envision 2105, Perkin Elmer). Fluorescent signal was normalized to background and DMSO controls to obtain percent inhibition/activity for each compound.

SMILES	IC50 [nM]
Cc1cc([C@@H](C)Nc2ccc(Cl)nc2C(=O)O)nc(N2C(=O)OC[C@@H]2Cc2ccccc2Br)c1 [Example 22, 3-(((R)-1-(6-((S)-4-(2-Bromobenzyl)-2-oxooxazolidin-3-yl)-4-methylpyridin-2-yl)ethyl)amino)-6-chloropicolinic acid]	100 to 1000

Same assay, conditions: Homo sapiens, T47D, 2 h; T-47D (heterozygous PIK3CA H1047R) cells, two hours of treatment, pAKT Ser473 HTRF; read-out: T47D pAKT IC50

SMILES	IC50 [nM]
Cc1cc(C(C)Nc2ccc(Cl)nc2C(=O)O)cc(N2C(=O)OC[C@@H]2Cc2ccccc2)c1 (single isomer, unassigned) [Example 2]	100 to 1000
Cc1cc(C(C)Nc2cccnc2C(=O)O)nc(N2C(=O)OC[C@@H]2Cc2ccccc2)c1 (single isomer, unassigned) [Example 13]	100 to 1000
Cc1cc(C(C)Nc2ccc(Cl)nc2C(=O)O)cc(N2C(=O)OC[C@@H]2Cc2ccccc2)c1 (stereo partly drawn) [Example 1, 3-((1-(3-((S)-4-Benzyl-2-oxooxazolidin-3-yl)-5-methylphenyl)ethyl)amino)-6-chloropicolinic acid]	100 to 1000
Cc1cc(C(C)Nc2ccc(F)nc2C(=O)O)cc(N2C(=O)OC[C@@H]2Cc2ccccc2)c1 (stereo partly drawn) [Example 3, 3-((1-(3-((S)-4-Benzyl-2-oxooxazolidin-3-yl)-5-methylphenyl)ethyl)amino)-6-fluoropicolinic acid]	100 to 1000
CC(Nc1ccc(Cl)nc1C(=O)O)c1cc(F)cc(N2C(=O)OC[C@@H]2Cc2ccccc2)c1 (stereo partly drawn) [Example 4, 3-((1-(3-((S)-4-Benzyl-2-oxooxazolidin-3-yl)-5-fluorophenyl)ethyl)amino)-6-chloropicolinic acid]	100 to 1000
CC(Nc1ccc(F)nc1C(=O)O)c1cc(F)cc(N2C(=O)OC[C@@H]2Cc2ccccc2)c1 (stereo partly drawn) [Example 5, 3-((1-(3-((S)-4-Benzyl-2-oxooxazolidin-3-yl)-5-fluorophenyl)ethyl)amino)-6-fluoropicolinic acid]	100 to 1000
CC(Nc1ccc(Cl)nc1C(=O)O)c1cc(Cl)cc(N2C(=O)OC[C@@H]2Cc2ccccc2)c1 (stereo partly drawn) [Example 6, 3-((1-(3-((S)-4-Benzyl-2-oxooxazolidin-3-yl)-5-chlorophenyl)ethyl)amino)-6-chloropicolinic acid]	100 to 1000
CC(Nc1ccc(F)nc1C(=O)O)c1cc(Cl)cc(N2C(=O)OC[C@@H]2Cc2ccccc2)c1 (stereo partly drawn) [Example 7, 3-((1-(3-((S)-4-Benzyl-2-oxooxazolidin-3-yl)-5-chlorophenyl)ethyl)amino)-6-fluoropicolinic acid]	100 to 1000
CC(Nc1ccc(F)nc1C(=O)O)c1cc(N2C(=O)OC[C@@H]2Cc2ccccc2)cc(C(F)(F)F)c1 (stereo partly drawn) [Example 8, 3-((1-(3-((S)-4-Benzyl-2-oxooxazolidin-3-yl)-5-(trifluoromethyl)phenyl)ethyl)amino)-6-fluoropicolinic acid]	1000 to 10000
Cc1cc([C@@H](C)Nc2ccc(Cl)nc2C(=O)O)cc(N2C(=O)OC[C@@H]2Cc2ccc(Br)cc2)c1 [Example 9, 3-(((R)-1-(3-((S)-4-(4-Bromobenzyl)-2-oxooxazolidin-3-yl)-5-methylphenyl)ethyl)amino)-6-chloropicolinic acid]	1000 to 10000
C[C@@H](Nc1ccc(Cl)nc1C(=O)O)c1cc(F)cc(N2C(=O)OC[C@@H]2Cc2ccccc2)c1 [Example 10, 3-(((R)-1-(3-((S)-4-Benzyl-2-oxooxazolidin-3-yl)-5-fluorophenyl)ethyl)amino)-6-chloropicolinic acid]	< 100
Cc1cc([C@@H](C)Nc2ccc(Cl)nc2C(=O)O)nc(N2C(=O)OC[C@@H]2Cc2ccc(C(=O)OC(C)(C)C)cc2)c1 [Example 25, 3-(((R)-1-(6-((S)-4-(4-(tert-Butoxycarbonyl)benzyl)-2-oxooxazolidin-3-yl)-4-methylpyridin-2-yl)ethyl)amino)-6-chloropicolinic acid]	100 to 1000

More lines, now with the values ahead:

IC50 [nM]	SMILES
100 to 1000	Cc1cc(C(C)Nc2ccc(C)nc2C(=O)O)nc(N2C(=O)OC[C@@H]2Cc2ccccc2)c1 (single isomer, unassigned) [Example 14]
1000 to 10000	Cc1cc(C(C)Nc2ccc(C(F)(F)F)nc2C(=O)O)nc(N2C(=O)OC[C@@H]2Cc2ccccc2)c1 (single isomer, unassigned) [Example 15]
100 to 1000	COc1ccc(NC(C)c2cc(C)cc(N3C(=O)OC[C@@H]3Cc3ccccc3)n2)c(C(=O)O)n1 (single isomer, unassigned) [Example 16]
1000 to 10000	Cc1cc(C(C)Nc2ccccc2C(=O)O)nc(N2C(=O)OC[C@@H]2Cc2ccccc2)c1 (stereo partly drawn) [Example 17, 2-((1-(6-((S)-4-Benzyl-2-oxooxazolidin-3-yl)-4-methylpyridin-2-yl)ethyl)amino)benzoic acid]
1000 to 10000	Cc1cc(C(C)Nc2ccc(C#N)nc2C(=O)O)nc(N2C(=O)OC[C@@H]2Cc2ccccc2)c1 (stereo partly drawn) [Example 19, 3-((1-(6-((S)-4-Benzyl-2-oxooxazolidin-3-yl)-4-methylpyridin-2-yl)ethyl)amino)-6-cyanopicolinic acid]
100 to 1000	Cc1cc([C@@H](C)Nc2ccc(Cl)nc2C(=O)O)nc(N2C(=O)OC[C@@H]2Cc2ccncc2)c1 [Example 28, 6-Chloro-3-(((R)-1-(4-methyl-6-((S)-2-oxo-4-(pyridin-4-ylmethyl)oxazolidin-3-yl)pyridin-2-yl)ethyl)amino)picolinic acid]
100 to 1000	Cc1cc([C@@H](C)Nc2ccc(Cl)nc2C(=O)O)nc(N2C(=O)OC[C@@H]2Cc2cc(C)ncc2F)c1 [Example 30, 6-Chloro-3-(((R)-1-(6-((S)-4-((5-fluoro-2-methylpyridin-4-yl)methyl)-2-oxooxazolidin-3-yl)-4-methylpyridin-2-yl)ethyl)amino)picolinic acid]
100 to 1000	Cc1cc([C@@H](C)Nc2ccc(Cl)nc2C(=O)O)nc(N2C(=O)OC[C@@H]2Cc2cccc3ccccc23)c1 [Example 31, 6-Chloro-3-(((R)-1-(4-methyl-6-((S)-4-(naphthalen-1-ylmethyl)-2-oxooxazolidin-3-yl)pyridin-2-yl)ethyl)amino)picolinic acid]
100 to 1000	Cc1cc([C@@H](C)Nc2ccc(Cl)nc2C(=O)O)nc(N2C(=O)OC[C@@H]2Cc2cnn(C)c2)c1 [Example 32, 6-Chloro-3-(((R)-1-(4-methyl-6-((S)-4-((1-methyl-1H-pyrazol-4-yl)methyl)-2-oxooxazolidin-3-yl)pyridin-2-yl)ethyl)amino)picolinic acid]
100 to 1000	Cc1cc([C@@H](C)Nc2ccc(Cl)nc2C(=O)O)nc(N2C(=O)OC[C@@H]2Cc2ccn(C)n2)c1 [Example 33, 6-Chloro-3-(((R)-1-(4-methyl-6-((S)-4-((1-methyl-1H-pyrazol-3-yl)methyl)-2-oxooxazolidin-3-yl)pyridin-2-yl)ethyl)amino)picolinic acid]
100 to 1000	Cc1cc([C@@H](C)Nc2ccc(Cl)nc2C(=O)O)nc(N2C(=O)OC[C@@H]2Cc2ccnn2C)c1 [Example 34, 6-Chloro-3-(((R)-1-(4-methyl-6-((S)-4-((1-methyl-1H-pyrazol-5-yl)methyl)-2-oxooxazolidin-3-yl)pyridin-2-yl)ethyl)amino)picolinic acid]
100 to 1000	Cc1cc([C@@H](C)Nc2ccc(Cl)nc2C(=O)O)nc(N2C(=O)OC[C@@H]2Cc2cn(C)nc2C)c1 [Example 35, 6-Chloro-3-(((R)-1-(6-((S)-4-((1,3-dimethyl-1H-pyrazol-4-yl)methyl)-2-oxooxazolidin-3-yl)-4-methylpyridin-2-yl)ethyl)amino)picolinic acid]
